Measurements reported in patent US4414204A, “Antibiotic preparations having increased effectiveness, processes for their manufacture and method for increasing the antibiotic action of antibiotics” (Ciba-Geigy Corporation, priority 1979, dated 1983).

Experiments:
Assay type in all cases: in vivo
[1] = tested on: Pasteurella multocida; assay: Mice infected i.p. with Pasteurella multocida, treated s.c. with cefroxadin alone or with muramylpeptide; survival, ED50; conditions: 0.1×10^4 cfu Pasteurella multocida i.p., cefroxadin twice s.c. (0 and 3 h after infection) with 10 mg/kg N-acetylmuramyl-L-alanyl-D-isoglutaminyl-L-alanyl-2-(1',2'-dipalmitoyl-sn-glycero-3'-hydroxyphosphoryloxy)-ethylamide, survivors counted 4 and 10 days after infection
Protocol: (§1) For this purpose, animals are infected with a lethal or sub-lethal dose of a pathogenic micro-organism and then the specified novel preparation of the individual doses of muramylpeptide and antibiotic are administered. The action is determined as ED50, that is to say, the dose at which 50% of the animals survive.
(§2) Laboratory white mice are infected i.p. with 2×10^4 cfu (colony forming units) of Klebsiella pneumoniae, 0.1×10^4 cfu of Pasteurella multocida or 40×10^4 cfu of Salmonella typhimurium in salt solution so that 90 to 100% of the untreated control animals die within 48 hours. Immediately after infection and 3 hours after infection, groups of 10 mice are treated with cefroxadin, both alone (without muramylpeptide) and in combination with 10 mg/kg of N-acetylmuramyl-L-alanyl-D-isoglutaminyl-L-alanyl-2-(1',2'-dipalmitoyl-sn- glycero-3'-hydroxyphosphoryloxy)-ethylamide, these being administered twice subcutaneously in the form of aqueous solutions or suspensions. A count of the surviving animals was made 4 and 10 days after infection.

[2] = tested on: Salmonella typhimurium; assay: Mice infected i.p. with Salmonella typhimurium, treated s.c. with cefroxadin alone or with muramylpeptide; survival, ED50; conditions: 40×10^4 cfu Salmonella typhimurium i.p., cefroxadin twice s.c. (0 and 3 h after infection) with 10 mg/kg N-acetylmuramyl-L-alanyl-D-isoglutaminyl-L-alanyl-2-(1',2'-dipalmitoyl-sn-glycero-3'-hydroxyphosphoryloxy)-ethylamide, survivors counted 4 and 10 days after infection
Protocol: as §1, §2

[3] = tested on: Klebsiella pneumoniae; assay: Mice infected i.p. with Klebsiella pneumoniae, treated s.c. with cefroxadin alone or with muramylpeptide; survival, ED50; conditions: 2×10^4 cfu Klebsiella pneumoniae i.p., cefroxadin twice s.c. (0 and 3 h after infection) with 10 mg/kg N-acetylmuramyl-L-alanyl-D-isoglutaminyl-L-alanyl-2-(1',2'-dipalmitoyl-sn-glycero-3'-hydroxyphosphoryloxy)-ethylamide, survivors counted 4 and 10 days after infection
Protocol: as §1, §2

Measured: ED50 values for the antibiotic in combination with the muramylpeptide versus alone

COC1=C(C(=O)O)N2C(=O)[C@@H](NC(=O)[C@H](N)C3=CCC=CC3)[C@H]2SC1 [cefroxadin, 7β-[D-2-amino-2-(1,4-cyclohexadienyl)-acetamido]-3-methoxy-3-cephem-4-carboxylic acid]
lower by a multiple: all assays above
